What all share (assay type): cell-based
The subject of data set [1] is K562 clone-9 cells. The data set is described as follows: EPP cellular model: PPIX level by flow cytometry after 96 h compound incubation. The following applies: for EC50: Homo sapiens, K562 clone-9 cells, 96 hours, flow cytometry, read-out: EPP cellular model (EC50 nM), inhibition of PPIX accumulation. How it is done:
Knockout guide sequences were designed to target Exon3 of the Ferrochelatase gene.
K562 cells were cultured in Iscove's Modified Dulbecco's Medium (IMDM) supplemented with 10% fetal bovine serum (FBS), 1% penicillin/streptomycin (PS). CRISPR Cas9 RNP complex with guide RNA was electroporated in K562 cells. Genomic DNA from the pooled cells was isolated, amplified by PCR and sequenced by Sanger sequencing to determine knockout efficiency. Single-cell clones were isolated by fluorescent-assisted cell sorting (FACS). TA cloning and Sanger sequencing were used to confirm single-cell clones and genotypes. Five clones were selected (Clone IDs are: Clone 1-7; Clone 1-9; Clone 1-10, Clone 1-32; Clone 1-51; and K562 WT) for further characterization by western blot (FIG. 1) to determine FECH protein expression levels (Antibody: FECH Antibody Rabbit Polyclonal, Proteintech, 14466-1-AP) and flow cytometry to determine the PPIX levels (FIG. 2). LC/MS/MS confirmed the accumulation of PPIX in clone 1-9 compared to WT K562 cells (FIG. 3).
(§1) 900 μL of K562 clone-9 cells at 2×10^5 cells/mL in IMDM media with 10% FBS and 1% PS were plated into a 24-well plate. After 24-hour incubation, 100 μL of compound in DMSO/media was added in different concentration. The final concentration of DMSO was 0.1%. The compound was incubated for 96 hours at 37° C. Cell viability and cell count were measured by Vi-CELL XR Complete System. Finally, the effect of the compound on PPIX level was determined by flow cytometry.
A general note: Flow cytometry measures light scatter and fluorescence of single cells or particles in a stream.

The test system of data set [2] is K562 clone-9 cells. The data set is described as follows: Cell viability and cell count by Vi-CELL XR Complete System in EPP cellular model. The following applies: 96 hours, Vi-CELL XR. As for the experimental part:
as §1

Data set [3] deals with clone 1-9 cells (EPP K562 cellular model). In words: LC/MS/MS of 5-ALA, PPIX and heme levels in the EPP K562 cellular model.
The subject of data set [4] is human cord blood-CD34+ cells. In words: Human cord blood CD34+ cells transduced with FECH shRNA lentivirus, erythroid differentiation, flow cytometry. The following applies: 100 nM, 9 days differentiation. As for the experimental part:
To investigate the effects of GlyT1 inhibitors in human hematopoietic stem cells with an EPP phenotype, lentiviral vectors expressing shRNA of FECH were constructed (Table 4) and transduced at 25 MOI into human cord blood-CD34+ cells purchased from Stemexpress.
Transduced CD34+ cells were differentiated in the presence of Bitopertin (100 nM) or DMSO control into erythroid cells for 9 days in StemSpan SFEM II media supplemented with StemSpan Erythroid Expansion Supplement. The erythroid cell antigen profile was analyzed using cytofluorimetric strategy with the following surface markers: CD71 (PE Mouse Anti-Human CD71, BD Biosciences), glycophoryin A (APC Mouse Anti-Human CD235a, BD Biosciences).

These results are taken from patent US11813257B2, “Methods of treating erythropoietic protoporphyria, X-linked protoporphyria, or congenital erythropoietic porphyria with glycine transport inhibitors” (Disc Medicine, Inc., priority 2020, dated 2023).

Structures are written as SMILES. Some results are limits rather than exact numbers.

Turning to `O=C(N[C@@H](c1ccccc1)[C@@H]1CCCCN1)c1cccc(C(F)(F)F)c1Cl` [SSR-504734], in the data set with K562 clone-9 cells [1], the EC50 (commonly the concentration at which the effect is half-maximal) amounted to 306 nM.

For `C[C@H](Oc1ccc(S(C)(=O)=O)cc1C(=O)N1CCN(c2ncc(C(F)(F)F)cc2F)CC1)C(F)(F)F` [Bitopertin, bitopertin], the EC50 with K562 clone-9 cells [1] stood at 7 nM. Moreover, the “effect on cell viability” value in the data set on K562 clone-9 cells [2] is “no negative effects on cell viability”. Moreover, in data set [3], the “5-aminolevulinic acid (5-ALA) level” value is reported as “decreased”, the Heme formation entry was “minimal effect” and the PPIX level result is recorded as “decreased”. In addition, in data set [4], the “effect on erythroid cell surface markers (CD71, glycophoryin A)” value is listed as “no negative effects”. Moreover, the “reduction of PPIX accumulation” value in data set [4] (FECH shRNA transduced CD34+ cells, flow cytometry) is recorded as 60%.

With `COc1cc(C(=O)NCC2(N(C)C)CCCC2)cc(OC)c1OCc1ccccc1` [ORG-25543], the “inhibition of PPIX accumulation (in words)” value with K562 clone-9 cells [1] (EPP cellular model, highest tested concentration 10 μM for ORG-25543) is listed as “did not show any inhibition”. Also, in the data set with K562 clone-9 cells [1], the EC50 is over 10000 nM.

On to `CN(CC[C@@H](Oc1ccc(-c2ccccc2)cc1)c1ccc(F)cc1)CC(=O)O` [ALX-5407], for which the EC50 with K562 clone-9 cells [1] was determined as 0.34 nM.

As to `CN(CCOc1ccc(-c2ccc3c(c2)OCO3)cc1C(C)(C)C)CC(=O)O` [LY-2365109], the EC50 in the data set on K562 clone-9 cells [1] was found to be 4.1 nM.

Take `CN1C[C@@H]2[C@H](C1)[C@H]2CN(Cc1ccc(F)c(Cl)c1)C(=O)c1cn(C)cn1` [PF-03463275]: in the data set on K562 clone-9 cells [1], the EC50 was 46 nM.

Turning to `COc1ccc2c(c1)CC[C@H](CN(C)CC(=O)O)[C@@H]2c1ccccc1` [ORG-25935], in the data set with K562 clone-9 cells [1], the EC50 is 14 nM.

Take `CN(CC[C@@H](Oc1ccc(C(F)(F)F)cc1)c1ccccc1)CC(=O)O` [ORG-24598]: the EC50 in the data set on K562 clone-9 cells [1] came to 5.6 nM.
